# Reference: US9339508B2, “Use of 3-methoxy-pregnenolone for the preparation of a drug for treating a traumatic brain injury” (MAPREG, priority 2003, dated 2016)
# Experiments:
# [1] = test system: PC12 cells; experiment: Neuritic growth / sprouting of PC12 cells in the presence of NGF; type: cell-based, rat; details: increasing concentrations, 2, 5 and 8 days of culture, NGF 10 ng/ml
# Method: Each molecule was tested in three culture wells. Measurements were taken for 200 cells per well using Scion Image software.
# Neurite (neurite) length was measured for 200 cells per well after 2, 5, and 8 days of culture.
# To rest the effect of selected molecules on neuritic growth, we first used the PC12 line, which has long been employed in neurobiological research. In the presence of NOF (nerve growth factor), the cells of this line, which arise from a rat pheochromocytoma, form neuritic extensions containing MAP-associated microtubules.
# Stimulation of neuritic sprouting is conducted on PC12 cells differentiated in the presence of NGF (10 ng/ml) and the steroid being tested (30 μM) for 3 days. For each condition, the average length of the longest 200 neurites in each cell is measured simultaneously for 3 cultures.
# [2] = test system: social isolated rats; experiment: Novel object recognition test, social isolated animals, 1 h ITI; type: in vivo, rat; details: 10 mg/kg subcutaneously 1 h before task
# Source text: Cognitive dysfunction, including impaired recognition memory, are common features in depressed patients (Egeland et al., Scand. J. Psychol. 2005). The present experiment explored the ability of 3-methoxy-PREG (43B) administration to increase recognition memory retention in naive animals and to recover recognition memory deficits in animals submitted to the social isolation protocol. Rearing rats in isolation from the time of weaning and throughout adulthood can induce a series of hippocampal structural and molecular deficits paralled by behavioural alterations resembling a depressive-like state (Weiss and Feldon, Psychopharmacology 2001; Bianchi et al., EJN 2006). Recognition memory was assessed using the NOR test which is a two-trial test of recognition memory based on the spontaneous preference of rats for novelty (Ennaceur and Delacour, Behav. Brain. Res. 1988; Bianchi et al. EJN. 2006). Briefly, rats are placed in the open field arena for a 3 min period of habituation and then re-placed in their “home” cage for 1 min. The animals are then re-placed in the arena for the familiarization trial (T1) and allowed to explore two identical objects for 5 min. […] The ability of the animals to discriminate between the novel and the familiar object is then expressed as D2-INDEX: [novel object (sec)−familiar object (sec)]/[novel object (sec)+familiar object (sec)] […]
# [3] = test system: CCI injured hippocampi; experiment: Histological analysis of the hippocampus size after CCI; type: in vivo, rat; details: day 35, 10 mg/kg and 20 mg/kg, first injection 2 h after TBI
# Method: (§1) CCI was performed with an electromagnetic impact device as described (MyNeurolab, St. Louis, Mo.; Brody et al, 2007). Anesthesized rats were subjected to a single right lateral CCI, with the following parameters impact centered 4.0 mm anterior to lambda and 4.5 mm […] of midline, within the craniotomy of the animal. The impact was set at a velocity of 4 m/s with a sustained depression of 200 ms, using a 5.0 mm tip.
# Frozen sections were stained with cresyl violet. For each section analyzed, the size of the hippocampus was determined by first outlining all remaining tissue of each section taken at 500 μm intervals through the lesion (right hemisphere) or contra lateral hemisphere, thus providing a total tissue area (mm2) of the two hemispheres for each section. Then, the areas of sections were summed per hemisphere.
# [4] = test system: α-tubulin in rat hippocampus; experiment: Microtubule dynamics in rat hippocampus (Tyr/Glu-Tub ratio, Acet-Tub); type: in vivo; details: 10 mg/kg subcutaneously, single administration
# Source text: Mean±SEM, n=6 per group. **P<0.01, *P<0.5 vs sesame oil.
# The effects produced by neurosteroids were compared with those produced by acute administration of the antidepressant drug fluoxetine (selective serotonin reuptake inhibitor SSRI).
# Neurosteroids and 3-Methoxy-PREG (43B) Levels
# [5] = test system: GAP43; experiment: Western blot of GAP43 in cortex and hippocampus after CCI; type: in vivo, rat; details: day 35, injured cortex (20 mg/kg only), hippocampus and non-injured cortex (both doses)
# Method: as §1
# (§2) Samples were analyzed by Western-blot at day 35 post-trauma (D35) to evaluate the effects of MAP4343 on: MAP2 (the target of MAP4343 and a modulator of microtubule function), the post-synaptic markers PSD95 and spinophilin, the pre-synaptic marker synaptophysin, and the axonal growth/integrity marker […].
# (§3) Western blot was performed on cortex and hippocampus of TBI-injured animals receiving the first injection of MAP4343 (at 10 mg/kg or 20 mg/kg) or vehicle (sesame oil) 2 h after injury.
# (§4) The expression level of various neuronal brain markers of plasticity was measured at day 35 post-trauma by western-blots in the cortex and hippocampus of left uninjured and right injured cerebral hemispheres of CCI traumatized animals receiving either vehicle (sesame oil, CCI-D0) or 3-methoxy-PREG (MAP4343) at 10 mg/kg (CCI-D1) or 20 mg/kg (CCI-D2), with first MAP4343 injection 2 h post-trauma.
# [6] = test system: MAP2; experiment: Western blot of MAP2 in cortex and hippocampus after CCI; type: in vivo, rat; details: day 35, 20 mg/kg, first injection 2 h post-trauma, injured and non-injured cortex and hippocampus
# Method: as §1, §2, §3, §4
# [7] = In vivo toxicity, daily injection for one month; parameters: species or system rat; details: rats, 48 mg/kg daily injection for one month
# [8] = test system: CHI traumatized rats; experiment: MRI of ventricular dilatation after Closed Head Injury (CHI); type: in vivo, rat; details: day 28 post-trauma, 20 mg/kg starting 24 hours post-trauma, compared to the vehicle
# Source text: The model “Closed Head Injury” (CHI), also commonly known as “weight-drop”, “impact-acceleration” or Marmarou model, allows the induction of TBI on a closed skull and generates diffuse axonal injuries (Holtzer et al 2001). After anesthesia induction, the scalp was incised, a piece of metal (diameter 10 mm, height 3 mm)—designed to protect against skull fracture—was glued to the skull, between the lambda and bregma. The animal was then placed on a foam bed and a cylindrical metallic 230-g weight was dropped from 2 m through a metal tubing onto the disk. At the very moment of the impact, the head of the animal plunged briefly in the foam bed, which leads to an acceleration/deceleration of the brain inside the skull.
# To determine lateral ventricle preservation, as well as lesion size (in the CCI model), T2-weighted MRI was performed 28 days after injury (D28). Acquisition was performed on a 7T Bruker AVANCE BIOSPEC—horizontal magnet, with rapid acquisition and relaxation enhancement (RARE).
# MRI imaging of rats was performed at day 28 post-trauma. Based on MRI imaging, ventricular dilatation induced by CHI trauma was analyzed in CHI traumatized rats injected from 24 hours post-trauma with sesame oil (CHI-D0), or 3-methoxy-PREG (MAP4343) at 10 mg/kg (CHI-D1) or 20 mg/kg (CHI-D2).
compound,measurement,setting,value
"CO[C@H]1CC[C@@]2(C)C(=CC[C@H]3[C@@H]4CC[C@H](C(C)=O)[C@@]4(C)CC[C@@H]32)C1 [3-methoxy-PREG, 3β-methoxy-pregna-5-ene-20-one]",increase in the length of neurites,[1],≤ 500%
same,discrimination between familiar and novel object,[2],efficiently discriminated between the familiar and the novel object
same,size of the injured hippocampus,[3],significantly increases the size of the injured hippocampus
same,Acet-Tub (stable acetylated α-tubulin),[4],significantly decreased
same,Tyr/Glu-Tub ratio,[4]; 3 h,significantly increased
same,GAP-43 expression,[5],increased GAP-43 expression
same,MAP2 expression,[6],strong increase of MAP-2
same,average weight and behavior,[7],affected neither average weight nor behavior
same,ventricular dilatation,[8],significantly decreases the ventricular dilatation
